Laboratory results from patent US9157054B2, “Device and method for preparing microparticles” (The University of Queensland, priority 2007, dated 2015).
≈ marks a conversion by molar mass, not a printed value. Where “and” joins values, the source holds several entries; their conditions need not be identical. Equal values may be shown once.

What was measured:
physchem = conditions: aqueous buffer
[1] = Particle size by optical microscopy; type: physicochemical
Source text: Alginate gel microparticles were examined using an optical microscope (Zeiss, AXIOSCOP 40) with […] attachment (AXIOCam MRm). The morphology and particle size of GS-loaded alginate microparticles were characterized according to the methods described above. The morphology of insulin-loaded alginate gel microparticles and the particle size were characterized according to the methods described above. The morphology and particle size was characterized according to the methods described above.

[2] = British Pharmacopoeia 2008; cited from earlier work

In the case of CC(C)Cc1ccc(C(C)C(=O)O)cc1 (centres unmarked) [ibuprofen], the solubility (physchem) is reported as 300 µg/mL (≈ 1450 µM), the powder particle size ([1]; 'as received' powder, before size reduction) is reported as 30-100 micron and 30-40 micron and the “crystal / powder particle size” value ([1]; after precipitation from acetone into alginate solution, optical microscope) is reported as 10-15 microns. The “solubility in acetone, methanol and dichloromethane (DCM)” value [2] was “freely soluble” and the solubility in water [2] was “practically insoluble”.
